Laboratory results taken from US20170224654A1, “PHARMACEUTICAL COMPOSITIONS AND METHODS FOR COUNTERING CHEMOTHERAPY INDUCED CARDIOTOXICITY” (Stem Cell Theranostics, Inc., priority 2016, published 2017).

Columns and labels:
[1] = tested on: cardiomyocytes derived from human induced pluripotent stem cells; experiment: Doxorubicin-induced apoptosis (TUNEL), 48 hours; assay type: cell-based; conditions: 1 μM doxorubicin, VIT 115 μM, Dex 160 μM, AMB 0.76 μM, NAC 50 μM, KAE 17 μM, MES 10 μM
Experimental: Following treatment, the samples were incubated with a TUNEL dye to indicate apoptosis-positive cells, and a second dye to identify cell nuclei.

[2] = tested on: human induced pluripotent stem cell-derived cardiomyocytes; experiment: Electrophysiological activity with doxorubicin (active electrodes, MEA); assay type: cell-based; conditions: for decrease in the number of active electrodes: 24 hours
Experimental: Samples were either mock-treated with 0.1% DMSO, treated with 1 μM doxorubicin, or co-treated with 1 μM doxorubicin and various concentrations of vitexin (e.g., 11.6 μM, 37 μM, or 116 μM). Following treatment, the percentage of active electrodes in each sample was measured for 72 hours. Percentage of active electrodes was quantified and graphed in a time course (FIG. 28A). The average number of active electrodes per well was quantified and graphed at 30 hours after the treatment (FIG. 28B, n=6, standard deviation is shown as error bars).

[3] = tested on: MDA-MB-231 breast cancer cells; experiment: Cell viability with doxorubicin (CellTiter-Glo); assay type: cell-based; conditions: co-treated with increasing concentrations of doxorubicin, 72 hours
[4] = tested on: induced pluripotent stem cell-derived cardiomyocytes; experiment: Long term toxicity on electrophysiology (active electrodes, MEA); assay type: cell-based; conditions: various concentrations, at least 5 days
Experimental: Samples were either mock-treated with 0.1% DMSO, or treated with various concentrations of the indicated drug. Following treatment, the percentage of active electrodes in each sample was measured for at least 5 days. Percentage of active electrodes was quantified and graphed in a time course.

A549 cells (lung cancer) = experiment: Cell viability with doxorubicin (CellTiter-Glo); assay type: cell-based; conditions: co-treated with increasing concentrations of doxorubicin, 72 hours
Experimental: A549 cells (lung cancer) were cultured for 1 day before performing experiments. […] XLFit was used for curve fitting.

[5] = tested on: human induced pluripotent stem cell-derived cardiomyocytes; experiment: Long-term mitochondrial health (TMRM), 7 days; assay type: cell-based; conditions: 1 μM doxorubicin alone or with dexrazoxane or vitexin
Experimental: Following treatment, the samples were incubated with a tetramethylrhodamine methyl ester (TMRM) dye to indicate mitochondrial health. […] Representative images are presented for each sample, wherein loss of TMRM signal represents mitochondrial toxicity.

patient = experiment: Patient treatment examples (echocardiogram / electrocardiogram); assay type: in vivo, human
Experimental: A patient, with a history of heart disease, is diagnosed with breast cancer. Due to an increased risk for heart failure, the patient is unable to receive the standard treatment regimen of doxorubicin, which is known to induce cardiotoxicity. Instead, the caregiver administers a co-formulation of doxorubicin (10 mg) and vitexin (100 mg). An echocardiogram is performed and blood flow rate is measured to determine if the therapy has a cardiotoxic effect in the patient.
A patient is diagnosed with liver cancer. […] The patient presents with a 20 ms QT prolongation. […] The patient is able to continue receiving treatment over several weeks after which a tissue biopsy is performed to confirm the liver cancer has been eradicated.
(§1) A patient is diagnosed with stage II lung cancer, and presents with bradycardia. Due to an increased risk for heart failure, the patient is unable to receive the standard treatment regimen of doxorubicin, which is known to affect cardiac contraction and induce bradycardia. Instead, the caregiver administers a co-formulation of doxorubicin (10 mg) and myricetin (100 mg). An electrocardiogram is used to monitor the patient's heart rate. […] The lung cancer is down-staged to stage 1, and the cancer is successfully removed with surgery.
as §1, with “myricetin (100 mg) 24 hours before administration” for “a co-formulation”, “(10” for “(10 mg) and myricetin (100”

[6] = tested on: induced pluripotent stem cell-derived cardiomyocytes; experiment: Acute toxicity on electrophysiology (MEA beat period, field potential duration); assay type: cell-based; conditions: lower drug concentration, at least 20 minutes
Experimental: Samples were either mock-treated with 0.1% DMSO, or treated with increasing concentrations of the indicated drug for at least 20 minutes. Cardiomyocytes were treated with the hERG potassium channel blocker E4031 as a control. Following treatment, the beat period and field potential duration (FPD) were measured in each sample using the MEA.

Q: Which results are given for `O=c1cc(-c2ccc(O)cc2)oc2c([C@@H]3O[C@H](CO)[C@@H](O)[C@H](O)[C@H]3O)c(O)cc(O)c12` [vitexin]?
A: decrease in apoptosis vs doxorubicin alone [1]: at least 60%; decrease in the number of active electrodes ([2]; 1 μM doxorubicin and 11.6 μM vitexin): ~50%; decrease in the number of active electrodes ([2]; 1 μM doxorubicin and 37 μM vitexin): ~25%; decrease in the number of active electrodes ([2]; 1 μM doxorubicin and 116 μM vitexin): ~0%; average number of active electrodes ([2]; 1 μM doxorubicin and 116 μM vitexin, 30 hours): about 10 active electrodes; percentage of cell death vs doxorubicin in the absence of a protective agent [3]: no significant difference; number of active electrodes relative to the mock-treated sample (in words) [4]: no observable decrease; percentage of cell death vs doxorubicin in the absence of a protective agent (A549 cells (lung cancer)): no significant difference; mitochondrial toxicity / protection (TMRM-positive cells) [5]: improved long term mitochondrial protection; QT prolongation (in words) (patient; doxorubicin (5 mg/mL) given with the protective agent): no signs of QT prolongation; cardiac dysfunction in the patient (patient; protective agent 100 mg co-formulated with, or 24 hours before, doxorubicin 10 mg): no indication of cardiac dysfunction; beat period or field potential duration, as compared to control samples [6]: no appreciable difference
